Experimental data reported in patent US20140249143A1, “Compounds And Methods For Enhancing Innate Immune Responses” (GlaxoSmithKline LLC, priority 2011, published 2014).

Key:
[1] = test system: IFN mediated JAK/STAT pathway (ISG54 promoter); test: Activation of the JAK/STAT pathway in HEKBlue IFN-α/β cells (SEAP); type: cell-based; conditions: HEK-Blue; 24 h, QUANTI-Blue, OD 650 nm; read-out: EC50 of activation of the JAK/STAT pathway (secreted alkaline phosphatase)
Experimental: The cells were incubated for 24 h in the presence of several treatments (Example 1, IFNα, and IFNλ3) and the supernatants were measured for the amount of the secreted alkaline phosphatase using QUANTI-Blue™ (InvivoGen) at the optical density of 650 nm. […] The activation of the pathway by IFNα (PBL) and IFNλ3 (R&D Systems Inc.) are shown as positive controls.

ISGs and cytokines mRNA = test: Induction of ISGs in mice in vivo; parameters: species or system Balb/c mice
Experimental: Naive Balb/c mice were purchased from Charles River Laboratories (Wilmington, Mass.) and administered with murine IFNα2 (30 ug/kg) intravenously or administered with oral Example 1 (300 mg/kg in 30/70% solutol/polyethylene glycol 400). The mice were then euthanized by CO2 inhalation at 0.5, 2, 6, 8, and 24 hours for sample collection. Four mice per dose group were tested.
For RNA isolation, the blood was collected in an RNAprotect™ tube (Qiagen) and processed with RNeasy Protect™ animal blood kit (Qiagen) according to the manufacturer's protocol. To preserve RNA, 30-200 mg of tissue pieces were stored in RNAlater™ solution (Invitrogen) until use. For RNA isolation, the thawed tissues were homogenized using a TissueLyser™ system (Qiagen) and processed with RNeasy 96 Universal Tissue Kit™ (Qiagen) according to the manufacturer's protocol. To remove DNA contamination, on-plate DNase digestion was included during the RNA purification.
For real time RT-PCR, cDNA was made using High Capacity cDNA Reverse Transcription Kit™ (Applied Biosystems). Gene expression was measured using TaqMan Fast Universal PCR Master Mix™ (Applied Biosystems) and gene specific probes and murine primers in HT7900 FAST System™ (Invitrogen). As housekeeping genes, actin and GAPDH were used for normalization. Data was calculated by the ΔΔCt method and fold change determined compared to non-treated control samples.

Compound: FC(F)(F)c1cc(C(F)(F)F)c2ccc3nc(-c4nnco4)cn3c2n1 [Compound 1, 2-[2,4-bis(trifluoromethyl)imidazo[1,2-a]1,8-naphthyridin-8-yl]-1,3,4-oxadiazole]
- EC50 [1]: ~1000 nM
- up-regulation of ISGs at 24 hours (ISGs and cytokines mRNA; Example 1 oral 300 mg/kg, murine IFNα2 30 ug/kg intravenously): appeared to sustain
- mRNA for Mx1, OAS1A, OAS2, CXCL10, ISG15, and IL6 (ISGs and cytokines mRNA; oral 300 mg/kg, Balb/c mice): marked increase
